Drawing on patent US20040110802A1, “Antibacterial benzoic acid derivatives” (priority 2002, published 2004), this text covers MIC for 59 compounds.

In brackets after ≈: the same amount, converted by molar mass.

The subject of this test is SAUR 9218. The experiment in a line: MIC Test Method, standard agar dilution. The class given is cell-based. The note with it: agar dilution, Mueller Hinton agar, incubated overnight at 35° C.; lowest concentration that inhibits visible growth; read-out: SAUR 9218 MIC. In a few lines: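 MIC (μg/ml) was read as the lowest drug level without visible growth of SAUR 9218 after overnight incubation at 35 °C. Inocula of about 10^4 to 10^5 cells per spot were applied to Mueller Hinton agar containing 2-fold serial compound dilutions.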

One may read the MIC as the lowest concentration found to suppress growth. Regarding `Cc1c(S(=O)(=O)NCCCn2ccnc2)csc1C(=O)Nc1ccc(Br)cc1C(=O)O`, the MIC is more than 128 µg/mL. To `O=C(Nc1ccc(Br)cc1C(=O)O)c1ccc[nH]1` belongs more than 128 µg/mL; to `O=C(Nc1ccc(Br)cc1C(=O)O)c1ccoc1`, more than 128 µg/mL; to `Cc1ccsc1C(=O)Nc1ccc(Br)cc1C(=O)O`, more than 128 µg/mL.

`Cc1ccc(C(=O)Nc2ccc(Br)cc2C(=O)O)s1`: the MIC came out at 64 µg/mL (≈ 188 µM). With `O=C(Nc1ccc(Br)cc1C(=O)O)c1ccsc1` the figure was more than 128 µg/mL; with `O=C(O)c1cc(Br)ccc1NC(=O)c1c[nH]c2ccccc12`, 4 µg/mL (≈ 11.1 µM); with `N#Cc1ccc(NC(=O)c2cc3cccc(NC(=O)c4csc(SCc5ccccc5)n4)c3[nH]2)c(C(=O)O)c1`, more than 128 µg/mL. To `N#Cc1ccc(NC(=O)c2cc3cccc(NC(=O)c4cccc(S(=O)(=O)N5CCOCC5)c4)c3[nH]2)c(C(=O)O)c1` belongs 0.5 µg/mL (≈ 0.872 µM); to `N#Cc1ccc(NC(=O)c2cc3cccc(NC(=O)c4cc5ccccc5[nH]4)c3[nH]2)c(C(=O)O)c1`, 0.25 µg/mL (≈ 0.539 µM); to `Cn1c(C(=O)Nc2cccc3cc(C(=O)Nc4ccc(C#N)cc4C(=O)O)[nH]c23)cc2ccccc21`, 0.125 µg/mL (≈ 0.262 µM). To `N#Cc1ccc(NC(=O)c2cc3cccc(NC(=O)c4cc(-c5ccccc5)on4)c3[nH]2)c(C(=O)O)c1` belongs 1 µg/mL (≈ 2.03 µM). Consider `N#Cc1ccc(NC(=O)c2cc3cccc(NC(=O)CCCCc4ccccc4)c3[nH]2)c(C(=O)O)c1`, for which the MIC turned out to be 0.25 µg/mL (≈ 0.52 µM). `N#Cc1ccc(NC(=O)c2cc3cccc(NC(=O)CCCc4ccccc4)c3[nH]2)c(C(=O)O)c1`: the minimal inhibitory concentration (MIC) is 0.5 µg/mL (≈ 1.07 µM).

Consider `COc1ccc(CCCC(=O)Nc2cccc3cc(C(=O)Nc4ccc(C#N)cc4C(=O)O)[nH]c23)cc1`, for which the MIC amounted to 1 µg/mL (≈ 2.01 µM). On to `CCCC(C)Sc1ccc(C(=O)Nc2ccc(C#N)cc2C(=O)O)cn1` (centres unmarked), for which the MIC was 0.125 µg/mL (≈ 0.338 µM).

For the compound `Cc1ccsc1-c1cc(C(=O)Nc2ccc(C#N)cc2C(=O)O)no1`, the MIC is 0.125 µg/mL (≈ 0.354 µM). To `COc1cccc(-c2cnc(C(=O)Nc3ccc(C#N)cc3C(=O)O)o2)c1` belongs 0.5 µg/mL (≈ 1.38 µM); to `N#Cc1ccc(NC(=O)c2cc3cccc(NC(=O)Cc4ccccc4Cl)c3[nH]2)c(C(=O)O)c1`, 0.25 µg/mL (≈ 0.529 µM); to `N#Cc1ccc(NC(=O)c2cc3cccc(NC(=O)Cc4ccc(Cl)cc4Cl)c3[nH]2)c(C(=O)O)c1`, 0.25 µg/mL (≈ 0.493 µM). With `N#Cc1ccc(NC(=O)c2cc3cccc(NC(=O)Cc4ccc(Cl)c(Cl)c4)c3[nH]2)c(C(=O)O)c1` the figure was 0.125 µg/mL (≈ 0.246 µM); with `N#Cc1ccc(NC(=O)c2cc3cccc(NC(=O)Cc4cccc(Cl)c4)c3[nH]2)c(C(=O)O)c1`, 0.25 µg/mL (≈ 0.529 µM). With `N#Cc1ccc(NC(=O)c2cc3cccc(NC(=O)Cc4cccc(C(F)(F)F)c4)c3[nH]2)c(C(=O)O)c1` the figure was 0.25 µg/mL (≈ 0.494 µM); with `Cc1cccc(CC(=O)Nc2cccc3cc(C(=O)Nc4ccc(C#N)cc4C(=O)O)[nH]c23)c1`, 0.125 µg/mL (≈ 0.276 µM); with `CC(C)(C)c1ccc(CC(=O)Nc2cccc3cc(C(=O)Nc4ccc(C#N)cc4C(=O)O)[nH]c23)cc1`, 0.5 µg/mL (≈ 1.01 µM). As to `COc1cccc(CC(=O)Nc2cccc3cc(C(=O)Nc4ccc(C#N)cc4C(=O)O)[nH]c23)c1`, the MIC was 0.5 µg/mL (≈ 1.07 µM). To `COc1ccccc1CC(=O)Nc1cccc2cc(C(=O)Nc3ccc(C#N)cc3C(=O)O)[nH]c12` belongs 0.5 µg/mL (≈ 1.07 µM); to `Cc1ccccc1CC(=O)Nc1cccc2cc(C(=O)Nc3ccc(C#N)cc3C(=O)O)[nH]c12`, 0.25 µg/mL (≈ 0.553 µM). Turning to `N#Cc1ccc(NC(=O)c2cc3cccc(NC(=O)Cc4ccc(C(F)(F)F)cc4)c3[nH]2)c(C(=O)O)c1`, the MIC turned out to be 0.5 µg/mL (≈ 0.987 µM). To `CC(C)c1ccc(CC(=O)Nc2cccc3cc(C(=O)Nc4ccc(C#N)cc4C(=O)O)[nH]c23)cc1` belongs 0.5 µg/mL (≈ 1.04 µM); to `Cc1ccc(CC(=O)Nc2cccc3cc(C(=O)Nc4ccc(C#N)cc4C(=O)O)[nH]c23)cc1`, 0.5 µg/mL (≈ 1.11 µM).

As for `N#Cc1ccc(NC(=O)c2cc3cccc(NC(=O)Cc4ccc(F)cc4)c3[nH]2)c(C(=O)O)c1`, the minimal inhibitory concentration (MIC) was 0.25 µg/mL (≈ 0.548 µM). To `CCCCSc1cnc(C(=O)Nc2ccc(C#N)cc2C(=O)O)cn1` belongs 0.125 µg/mL (≈ 0.351 µM); to `N#Cc1ccc(NC(=O)c2cc3cccc(NC(=O)Cc4ccccc4C(F)(F)F)c3[nH]2)c(C(=O)O)c1`, 1 µg/mL (≈ 1.97 µM). To `N#Cc1ccc(NC(=O)c2cc3cccc(NC(=O)Cc4cccc(F)c4)c3[nH]2)c(C(=O)O)c1` belongs 0.25 µg/mL (≈ 0.548 µM); to `N#Cc1ccc(NC(=O)c2cc3cccc(NC(=O)CSc4ccccc4)c3[nH]2)c(C(=O)O)c1`, 0.5 µg/mL (≈ 1.06 µM). For `N#Cc1ccc(NC(=O)c2cc3cccc(NC(=O)Cc4ccc5ccccc5c4)c3[nH]2)c(C(=O)O)c1`, the MIC is 0.25 µg/mL (≈ 0.512 µM). To `N#Cc1ccc(NC(=O)c2cc3cccc(NC(=O)Cc4cccc5ccccc45)c3[nH]2)c(C(=O)O)c1` belongs 0.125 µg/mL (≈ 0.256 µM); to `N#Cc1ccc(NC(=O)c2cc3cccc(NC(=O)COc4ccc5ccccc5c4)c3[nH]2)c(C(=O)O)c1`, 0.25 µg/mL (≈ 0.496 µM); to `CCCOc1ccccc1C(=O)Nc1cccc2cc(C(=O)Nc3ccc(C#N)cc3C(=O)O)[nH]c12`, 1 µg/mL (≈ 2.07 µM).

`N#Cc1ccc(NC(=O)c2cc3cccc(NC(=O)C4CCOC4)c3[nH]2)c(C(=O)O)c1` (centres unmarked): the MIC turned out to be 2 µg/mL (≈ 4.78 µM).

With `CC1(C(=O)Nc2cccc3cc(C(=O)Nc4ccc(C#N)cc4C(=O)O)[nH]c23)CC1`, the minimal inhibitory concentration (MIC) is 2 µg/mL (≈ 4.97 µM). With `CCOc1ccc(CC(=O)Nc2cccc3cc(C(=O)Nc4ccc(C#N)cc4C(=O)O)[nH]c23)cc1` the figure was 0.5 µg/mL (≈ 1.04 µM). With `N#Cc1ccc(NC(=O)c2cc3cccc(NC(=O)Cc4csc5ccccc45)c3[nH]2)c(C(=O)O)c1` the figure was 0.25 µg/mL (≈ 0.506 µM). In the case of `N#Cc1ccc(NC(=O)c2cc3cccc(NC(=O)c4ccc(-c5ccccc5)cc4)c3[nH]2)c(C(=O)O)c1`, the MIC came to 0.5 µg/mL (≈ 0.999 µM). To `CCCCOc1ccc(C(=O)Nc2cccc3cc(C(=O)Nc4ccc(C#N)cc4C(=O)O)[nH]c23)cc1` belongs 2 µg/mL (≈ 4.03 µM); to `N#Cc1ccc(NC(=O)c2cc3cccc(NC(=O)c4ccccc4CCc4ccccc4)c3[nH]2)c(C(=O)O)c1`, 0.5 µg/mL (≈ 0.946 µM); to `N#Cc1ccc(NC(=O)c2cc3cccc(NC(=O)c4ccccc4-c4ccccc4)c3[nH]2)c(C(=O)O)c1`, 1 µg/mL (≈ 2 µM).

In the case of `CCSc1ccc(C(=O)Nc2cccc3cc(C(=O)Nc4ccc(C#N)cc4C(=O)O)[nH]c23)cc1`, the MIC amounted to 0.25 µg/mL (≈ 0.516 µM).

With `CS(=O)(=O)c1ccccc1C(=O)Nc1cccc2cc(C(=O)Nc3ccc(C#N)cc3C(=O)O)[nH]c12`, the MIC is 4 µg/mL (≈ 7.96 µM). With `N#Cc1ccc(NC(=O)c2cc3cccc(NC(=O)Cc4c(Cl)cccc4Cl)c3[nH]2)c(C(=O)O)c1` the figure was 0.25 µg/mL (≈ 0.493 µM); with `N#Cc1ccc(NC(=O)c2cc3cccc(NC(=O)Cc4ccc(-c5ccccc5)cc4)c3[nH]2)c(C(=O)O)c1`, 0.5 µg/mL (≈ 0.972 µM); with `N#Cc1ccc(NC(=O)c2cc3cccc(NC(=O)Cc4ccc5c(c4)OCO5)c3[nH]2)c(C(=O)O)c1`, 0.5 µg/mL (≈ 1.04 µM). To `CC(C)(C)CC(=O)Nc1cccc2cc(C(=O)Nc3ccc(C#N)cc3C(=O)O)[nH]c12` belongs 2 µg/mL (≈ 4.78 µM). With `N#Cc1ccc(NC(=O)c2cc3cccc(NC(=O)Cc4cccs4)c3[nH]2)c(C(=O)O)c1` the figure was 0.5 µg/mL (≈ 1.12 µM); with `N#Cc1ccc(-c2cnc(C(=O)Nc3ccc(Br)cc3C(=O)O)o2)cc1`, 8 µg/mL (≈ 19.4 µM). Regarding `COc1cnc(C(=O)Nc2ccc(Br)cc2C(=O)O)cn1`, the MIC is 4 µg/mL (≈ 11.4 µM). With `N#Cc1ccc(NC(=O)c2ncc(-c3ccc4c(c3)OCO4)o2)c(C(=O)O)c1` the figure was 2 µg/mL (≈ 5.3 µM). Consider `CCC(C)Sc1cnc(C(=O)Nc2ccc(Br)cc2C(=O)O)cn1` (centres unmarked), for which the MIC is 0.5 µg/mL (≈ 1.22 µM).
